# Numbering of substitutions follows the chain as printed.
# Experiments:
# L309A mutant AhR = target: T1, L309A mutant AhR (Mus musculus, UniProt P30561, L309A); assay: AhR DNA binding (gel retardation) assay, L309A mutant AhR; assay type: biochemical; conditions: L309A substitution; relative to wt mAhR activated by TCDD; single maximal ligand concentration
# T1 construct: made in house; host or cells: in vitro transcription/translation (rabbit reticulocyte lysate)
# Method: Wild-type and mutant mAhRs and mARNT were synthesized in vitro in the presence of unlabeled L-methionine, the resulting mAhRs and mARNT translation mixtures and MEDGK (25 mM MOPS (3-(N-morpholino)propanesulfonic acid; pH 7.5), 1 mM EDTA, 1 mM dithiothreitol, 10% (v/v) glycerol, 150 mM KCl) were mixed in a 1:1:8 (v/v/v) ratio and incubated with DMSO (1% final concentration) or the indicated concentration of TCDD or test chemical for 2 hours at room temperature. An aliquot of each incubation was mixed with [^32P]-labeled double-stranded oligonucleotide containing the mouse AhR DNA binding site DRE3 (a dioxin responsive element from the upstream region of the murine Cyp1a1 gene[71]) and protein-DNA complexes resolved by gel retardation analysis as previously described in detail. Gels were visualized using a FLA9000 Fujifilm Imager and protein-DNA complexes quantitated with Fujifilm MultiGauge software. For potency measurements, reactions were incubated with increasing concentrations of the test chemical and the chemical concentration producing half maximal AhR:ARNT:DRE complex formation (EC50) determined.
# M342A mutant AhR = target: T2, M342A mutant AhR (Mus musculus, UniProt P30561, M342A); assay: [3H]TCDD competitive ligand binding, M342A mutant AhR; conditions: for change of relative binding affinity versus wild-type AhR: M342A substitution, in words; for IC50: Table S6, AhR mutant M342A
# T2 construct: made in house; host or cells: in vitro, Promega TNT Quick rabbit reticulocyte lysate
# T2 sequence (P30561 10-848 M342A): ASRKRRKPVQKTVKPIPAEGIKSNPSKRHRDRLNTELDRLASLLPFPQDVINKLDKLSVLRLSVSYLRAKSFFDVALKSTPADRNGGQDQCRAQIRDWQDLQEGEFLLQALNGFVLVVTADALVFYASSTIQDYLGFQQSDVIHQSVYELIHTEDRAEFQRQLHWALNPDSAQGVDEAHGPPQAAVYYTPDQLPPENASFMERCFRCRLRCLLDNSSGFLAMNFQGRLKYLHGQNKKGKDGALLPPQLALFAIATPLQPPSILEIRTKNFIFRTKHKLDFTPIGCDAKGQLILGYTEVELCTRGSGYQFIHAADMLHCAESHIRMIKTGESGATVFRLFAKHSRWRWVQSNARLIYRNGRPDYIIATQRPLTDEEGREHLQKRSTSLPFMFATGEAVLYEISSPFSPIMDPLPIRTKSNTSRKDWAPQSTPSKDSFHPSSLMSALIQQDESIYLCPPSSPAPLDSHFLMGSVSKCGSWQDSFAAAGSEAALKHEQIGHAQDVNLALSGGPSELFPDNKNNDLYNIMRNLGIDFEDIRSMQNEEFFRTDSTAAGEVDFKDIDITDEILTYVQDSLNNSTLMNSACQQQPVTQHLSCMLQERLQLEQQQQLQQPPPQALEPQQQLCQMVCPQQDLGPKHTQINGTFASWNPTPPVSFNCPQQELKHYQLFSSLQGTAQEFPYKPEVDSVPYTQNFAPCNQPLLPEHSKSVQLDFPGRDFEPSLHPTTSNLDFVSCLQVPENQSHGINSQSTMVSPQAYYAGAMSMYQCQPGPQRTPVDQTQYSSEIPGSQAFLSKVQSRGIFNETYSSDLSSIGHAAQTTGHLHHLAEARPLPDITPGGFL
# Method: (§1) The mouse AhR (mAhR) and ARNT (mARNT) expression plasmids, mβAhR/pcDNA3 and mβArnt/pcDNA3, have been previously described. Point mutations of mβAhR/pcDNA3 were carried out using the QuikChange Lightning Mutagenesis Kit (Agilent Technologies) and all constructs were verified by sequencing.
# (§2) [^3H]TCDD specific binding to wild-type or mutant mAhRs synthesized in vitro using the Promega TNT Quick coupled transcription/translation rabbit reticulocyte lysate kit (Madison, WI) was carried out as previously described. [^3H]TCDD specific binding was determined by subtracting the amount of [^3H]TCDD bound to unprogrammed lysate (nonspecific binding) from the total amount of [^3H]TCDD binding to lysate containing in vitro expressed AhR. The amount of [^3H]TCDD specific binding remaining in the presence of the indicated competitor chemical was expressed as a percent of the total [^3H]TCDD specific binding. The relative binding affinity (IC50) of each chemical was determined from concentration-dependent competitive inhibition curves obtained using [^3H]TCDD and increasing concentrations of each test chemical and the mean IC50 value was determined using three-parameter non-linear regression.
# M334A mutant AhR = target: T3, M334A mutant AhR (Mus musculus, UniProt P30561, M334A); assay: [3H]TCDD competitive ligand binding, M334A mutant AhR; conditions: for change of relative binding affinity versus wild-type AhR: M334A substitution, in words; for IC50: Table S6, AhR mutant M334A
# T3 construct: made in house; host or cells: in vitro, Promega TNT Quick rabbit reticulocyte lysate
# T3 sequence (P30561 10-848 M334A): T2 sequence (P30561 10-848 M342A) with M325A, A333M
# Method: as §1, §2
# T1 sequence (P30561 10-848 L309A): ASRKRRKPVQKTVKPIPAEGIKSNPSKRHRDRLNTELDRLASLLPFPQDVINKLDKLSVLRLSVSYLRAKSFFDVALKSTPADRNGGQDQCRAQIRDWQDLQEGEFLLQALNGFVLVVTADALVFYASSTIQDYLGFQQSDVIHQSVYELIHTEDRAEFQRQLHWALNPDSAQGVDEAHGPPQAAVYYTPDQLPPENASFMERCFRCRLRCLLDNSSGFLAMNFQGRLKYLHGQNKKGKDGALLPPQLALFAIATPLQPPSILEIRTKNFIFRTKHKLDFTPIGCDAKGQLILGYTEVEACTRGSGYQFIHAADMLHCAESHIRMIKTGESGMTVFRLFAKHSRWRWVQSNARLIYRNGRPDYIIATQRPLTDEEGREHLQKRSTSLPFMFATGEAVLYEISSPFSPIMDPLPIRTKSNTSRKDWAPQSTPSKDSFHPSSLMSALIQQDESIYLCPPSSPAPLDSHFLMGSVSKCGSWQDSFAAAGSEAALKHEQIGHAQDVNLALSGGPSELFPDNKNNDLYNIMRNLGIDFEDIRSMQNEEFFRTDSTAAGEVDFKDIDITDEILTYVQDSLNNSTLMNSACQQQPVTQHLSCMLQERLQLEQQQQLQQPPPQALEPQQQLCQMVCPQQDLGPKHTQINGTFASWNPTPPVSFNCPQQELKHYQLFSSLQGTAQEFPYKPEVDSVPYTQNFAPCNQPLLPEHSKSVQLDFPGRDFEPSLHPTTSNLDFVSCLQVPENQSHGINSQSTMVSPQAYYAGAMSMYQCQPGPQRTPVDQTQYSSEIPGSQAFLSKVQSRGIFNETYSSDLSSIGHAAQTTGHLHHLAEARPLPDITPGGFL
# T1 sequence (P53762 whole entry partner): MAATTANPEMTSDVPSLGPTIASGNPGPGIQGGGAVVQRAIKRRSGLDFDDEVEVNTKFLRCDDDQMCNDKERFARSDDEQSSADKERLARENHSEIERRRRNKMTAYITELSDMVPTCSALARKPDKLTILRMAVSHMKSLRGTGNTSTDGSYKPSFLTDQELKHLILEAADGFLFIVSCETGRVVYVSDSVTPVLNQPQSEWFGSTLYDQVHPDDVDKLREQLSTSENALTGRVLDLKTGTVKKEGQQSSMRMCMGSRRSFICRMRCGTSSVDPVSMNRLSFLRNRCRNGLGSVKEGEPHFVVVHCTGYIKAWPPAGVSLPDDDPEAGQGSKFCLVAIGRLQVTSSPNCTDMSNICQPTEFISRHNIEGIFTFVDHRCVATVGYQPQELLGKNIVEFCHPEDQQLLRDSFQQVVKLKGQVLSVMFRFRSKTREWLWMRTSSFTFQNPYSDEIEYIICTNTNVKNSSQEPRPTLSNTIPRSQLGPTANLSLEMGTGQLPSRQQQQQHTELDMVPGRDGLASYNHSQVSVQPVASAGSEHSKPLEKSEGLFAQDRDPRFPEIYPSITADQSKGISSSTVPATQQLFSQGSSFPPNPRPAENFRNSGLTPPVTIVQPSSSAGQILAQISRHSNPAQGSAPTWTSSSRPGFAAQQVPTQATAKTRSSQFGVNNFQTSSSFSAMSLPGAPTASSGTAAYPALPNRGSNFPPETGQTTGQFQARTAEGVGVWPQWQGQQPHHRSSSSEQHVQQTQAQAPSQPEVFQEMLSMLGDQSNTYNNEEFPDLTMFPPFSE
Structure (SMILES),ligand-induced AhR DNA binding (L309A mutant AhR),change of relative binding affinity versus wild-type AhR (M342A mutant AhR),IC50 (M342A mutant AhR) [nM],change of relative binding affinity versus wild-type AhR (M334A mutant AhR),IC50 (M334A mutant AhR) [nM]
"Clc1cc2oc3cc(Cl)c(Cl)cc3c2cc1Cl [TCDF, 2,3,7,8-tetrachlorodibenzofuran]",little to no,,,,
"Cc1ccc2cc3c(ccc4ccccc43)c3c2c1CC3 [3MC, 3-methylcholanthrene]",,reduced,248,decreased,34.7
"c1ccc2c(c1)cc1ccc3cccc4ccc2c1c34 [BaP, Benzo(a)pyrene]",little to no,,,,
O=c1cc(-c2ccccc2)oc2ccc3ccccc3c12 [BNF],,not affected,9.6,,
"O=Cc1c2[nH]c3ccccc3c2cc2[nH]c3ccccc3c12 [FICZ, 6-formylindolo[3,2-b]carbazole]",,,0.0207,,
"Clc1cc2c(cc1Cl)Oc1cc(Cl)c(Cl)cc1O2 [TCDD, 2,3,7,8-tetrachlorodibenzo-p-dioxin]",less than 25%,,,,
"c1ccc2c(c1)ccc1cc3c(ccc4ccccc43)cc12 [DBA, dibenz(a,h)anthracene]",,not affected,6.72,no significant effect,7.33
"Clc1ccc(-c2cc(Cl)c(Cl)c(Cl)c2)cc1Cl [PCB126, 3,3′4,4′5-pentachlorobiphenyl]",,reduced,9.33,significantly reduced,74.1

# Source: publication PMC6650409, “Modeling the binding of diverse ligands within the Ah receptor ligand binding domain” (Scientific Reports, 2019)
